From ChEMBL document CHEMBL1201862, “PubChem BioAssay data set” (2004) come the findings set out here.

Test systems include ACHN; BT-549; CAKI-1; HOP-62; HT-29; IGROV-1; KM12; M14; MDA-N; NCI-H23; OVCAR-5; SF-268; SF-295; SK-MEL-28; SN12C; SNB-75; SR; T47D; TK-10; UO-31.
Assay in all cases: growth of human tumour cells (NCI), 48 h

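A five-concentration, 48-hour dose response in 96-well plates underlies each endpoint, interpolated linearly between surrounding concentrations. At the GI50, growth is halved.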 Active and inactive are the calls of the source. No stated cut-off is given here; in the data, active = GI50 up to about 1.1 µM and inactive = higher. Bounds are passed on as bounds.

`Cc1cc(C)c2c(c1)C/C(=C\c1ccccc1C(=O)O)C2=O`: the GI50 with ACHN was > 100 µM (inactive); in the experiment with BT-549 it was 29.9 µM (inactive); in the experiment with CAKI-1, > 100 µM (inactive); in the experiment with HOP-62, > 100 µM (inactive); with HT-29, > 100 µM (inactive); in the experiment with IGROV-1 it was > 100 µM (inactive). In addition, the GI50 in the experiment on KM12, with M14, in the experiment with MDA-N, in the experiment on NCI-H23, in the experiment with OVCAR-5 and with SF-268 was > 100 µM (inactive) throughout. Moreover, the GI50 in the experiment with SF-295 was > 100 µM (inactive); in the experiment on SK-MEL-28 it was > 100 µM (inactive); in the experiment with SN12C, > 100 µM (inactive); in the experiment on SNB-75, 75.3 µM (inactive); in the experiment on SR, > 100 µM (inactive); in the experiment on T47D, 35.2 µM (inactive). Further, the GI50 in the experiment on TK-10 is > 100 µM (inactive); in the experiment with UO-31, 73.3 µM (inactive).
With `Nc1ccn([C@H]2CO[C@@H](CO)O2)c(=O)n1`, the GI50 was 0.106 µM (active) with ACHN; 32.7 µM (inactive) in the experiment with BT-549; 0.222 µM (active) in the experiment on CAKI-1; 1.67 µM (inactive) in the experiment with HOP-62; 15 µM (inactive) with HT-29; 74 µM (inactive) with IGROV-1. For the same compound, the GI50 is > 100 µM (inactive) in the experiment with KM12; 0.83 µM (active) with M14; 17.4 µM (inactive) in the experiment on MDA-N; 15.1 µM (inactive) in the experiment with NCI-H23; 27.9 µM (inactive) in the experiment with OVCAR-5; 11.4 µM (inactive) with SF-268. Moreover, the GI50 was 1.2 µM (inactive) in the experiment on SF-295; 15.7 µM (inactive) with SK-MEL-28; 1.95 µM (inactive) in the experiment on SN12C; > 100 µM (inactive) in the experiment with SNB-75; 1.49 µM (inactive) in the experiment on SR; > 35.6 µM (inactive) in the experiment on T47D. The GI50 in the experiment with TK-10 is > 100 µM (inactive); in the experiment on UO-31, 1.57 µM (inactive).
`O=C1C(/N=N/c2ccc(-c3nc4ccccc4[nH]3)cc2)NC(=S)N1c1ccccc1` (stereo not given): the GI50 is > 100 µM (inactive) in the experiment on ACHN; > 100 µM (inactive) in the experiment on BT-549; > 100 µM (inactive) in the experiment with CAKI-1; > 100 µM (inactive) in the experiment on HOP-62; 31.8 µM (inactive) in the experiment with HT-29; 40.2 µM (inactive) in the experiment with IGROV-1. In addition, the GI50 was 18 µM (inactive) in the experiment on KM12; > 100 µM (inactive) in the experiment with M14; 39.5 µM (inactive) in the experiment with MDA-N; 57.4 µM (inactive) in the experiment on NCI-H23; > 100 µM (inactive) with OVCAR-5; > 100 µM (inactive) in the experiment on SF-268. The GI50 with SF-295 is 91.6 µM (inactive); in the experiment on SK-MEL-28, > 100 µM (inactive); in the experiment on SN12C, > 100 µM (inactive); with SNB-75, 93.1 µM (inactive); in the experiment with SR, 0.671 µM (active); in the experiment on T47D it was 18.8 µM (inactive). For the same compound, the GI50 with TK-10 and in the experiment with UO-31 was > 100 µM (inactive) in each case.
Regarding `CCc1c[n+]([O-])c(C)cc1[N+](=O)[O-]`, the GI50 in the experiment on ACHN is 17.7 µM (inactive); in the experiment with BT-549, > 100 µM (inactive); with CAKI-1, 40.4 µM (inactive); in the experiment with HOP-62, > 100 µM (inactive); with HT-29 it was 82.8 µM (inactive); in the experiment with IGROV-1 it was > 100 µM (inactive). Further, the GI50 in the experiment on KM12 is 45.4 µM (inactive); in the experiment with M14, 40.2 µM (inactive); in the experiment on MDA-N, 44.2 µM (inactive); in the experiment with NCI-H23, 74.1 µM (inactive); in the experiment with OVCAR-5, > 100 µM (inactive); in the experiment on SF-268 it was > 100 µM (inactive). The GI50 with SF-295 was > 100 µM (inactive); with SK-MEL-28, > 100 µM (inactive); with SN12C, 53.7 µM (inactive); with SNB-75, 78.3 µM (inactive); in the experiment with SR, 33.6 µM (inactive); in the experiment with T47D it was > 100 µM (inactive). The results for the GI50 with TK-10 and with UO-31 were 35.2 µM (inactive) and > 100 µM (inactive), respectively.
With `CCCCC/C=C1\CC(CO)(COC(=O)CC(C(C)C)C(C)C)OC1=O` (stereo not given), the GI50 in the experiment on ACHN is 13 µM (inactive); in the experiment on BT-549 it was 16.4 µM (inactive); in the experiment with CAKI-1, 9.42 µM (inactive); with HOP-62 it was 6 µM (inactive); in the experiment with HT-29, 19.9 µM (inactive); in the experiment on IGROV-1, 17.4 µM (inactive). In addition, the GI50 with KM12 was 11.4 µM (inactive); with M14 it was 14.6 µM (inactive); in the experiment on MDA-N it was 8.15 µM (inactive); in the experiment with NCI-H23, 17.5 µM (inactive); in the experiment on OVCAR-5, 12.7 µM (inactive); in the experiment on SF-268 it was 17.9 µM (inactive). Also, the GI50 is 5.52 µM (inactive) in the experiment on SF-295; 16.1 µM (inactive) in the experiment on SK-MEL-28; 16.1 µM (inactive) in the experiment on SN12C; 12.1 µM (inactive) in the experiment on SNB-75; 28.6 µM (inactive) with SR; 23.1 µM (inactive) with T47D. The GI50 was 14.2 µM (inactive) in the experiment with TK-10 and 13.7 µM (inactive) with UO-31.
For the compound `C=C1CC2(CCOc3ccc(Cl)cc32)OC1=O` (stereo not given), the GI50 in the experiment with ACHN is 4.86 µM (inactive); in the experiment on BT-549, 0.352 µM (active); in the experiment with CAKI-1, 2.33 µM (inactive); in the experiment with HOP-62, 5.35 µM (inactive); in the experiment with HT-29, 5.86 µM (inactive); with IGROV-1, 8.57 µM (inactive). Moreover, the GI50 was 13.7 µM (inactive) in the experiment on KM12; 2.54 µM (inactive) with M14; 3.53 µM (inactive) in the experiment with MDA-N; 5.22 µM (inactive) in the experiment with NCI-H23; 10.6 µM (inactive) in the experiment on OVCAR-5; 6.22 µM (inactive) in the experiment on SF-268. The GI50 was 7.24 µM (inactive) in the experiment on SF-295; 8.38 µM (inactive) with SK-MEL-28; 7.69 µM (inactive) with SN12C; 3.61 µM (inactive) in the experiment with SNB-75; 2.37 µM (inactive) with SR; 4.93 µM (inactive) in the experiment with T47D. Moreover, the figures for the GI50 in the experiment with TK-10 and in the experiment with UO-31 were 5.77 µM (inactive) and 2.83 µM (inactive), respectively.
Regarding `CCOC(=O)Oc1cc2c(c(OC)c1OC)-c1ccc(SC)c(=O)cc1C(NC(=O)C(F)(F)F)CC2` (stereo not given), the GI50 in the experiment with ACHN was 0.00224 µM (active); in the experiment with BT-549 it was 0.1 µM (active); with CAKI-1, 0.0147 µM (active); in the experiment with HOP-62, 0.00191 µM (active); in the experiment on HT-29, < 0.001 µM (active); in the experiment with IGROV-1, 0.0022 µM (active). The GI50 with KM12 is 0.00258 µM (active); in the experiment on M14, < 0.001 µM (active); with MDA-N, < 0.001 µM (active); in the experiment with NCI-H23 it was 0.0209 µM (active); in the experiment on OVCAR-5 it was 0.1 µM (active); with SF-268, 0.00196 µM (active). Further, the GI50 in the experiment on SF-295 was < 0.001 µM (active); in the experiment on SK-MEL-28, < 0.001 µM (active); with SN12C, 0.00199 µM (active); in the experiment with SNB-75, < 0.001 µM (active); with SR, 0.00128 µM (active); in the experiment on T47D it was 8.97 µM (inactive). Moreover, the GI50 is > 10 µM (inactive) in the experiment on TK-10 and 0.244 µM (active) with UO-31.
In the case of `Cn1c(=O)c2sc3cc4c(cc3c2c2ccccc21)sc1c(=O)n(C)c2ccccc2c14`, the GI50 in the experiment with ACHN was 19.2 µM (inactive); in the experiment on BT-549, 19.8 µM (inactive); in the experiment on CAKI-1, > 100 µM (inactive); in the experiment on HOP-62, 19.9 µM (inactive); in the experiment on HT-29, > 100 µM (inactive); in the experiment on IGROV-1, 65.9 µM (inactive). The GI50 in the experiment with KM12 is > 100 µM (inactive); in the experiment with M14 it was 88.1 µM (inactive); with MDA-N, > 100 µM (inactive); with NCI-H23, 45.7 µM (inactive); in the experiment with OVCAR-5 it was 57.3 µM (inactive); in the experiment on SF-268, 59.7 µM (inactive). Also, the GI50 is 15.2 µM (inactive) with SF-295; > 100 µM (inactive) in the experiment on SK-MEL-28; > 100 µM (inactive) in the experiment on SN12C; 12.9 µM (inactive) in the experiment with SNB-75; 25.8 µM (inactive) with SR; > 100 µM (inactive) in the experiment on T47D. Besides, the GI50 in the experiment with TK-10 is > 100 µM (inactive); in the experiment with UO-31, 74.8 µM (inactive).
Regarding `COc1cc2c3cc1Oc1c(OC)c(OC)cc4c1C(Cc1ccc(O)c(c1)Oc1ccc(cc1)CC3N(C)CC2)N(C)CC4` (stereo not given), the GI50 with ACHN was 17.3 µM (inactive); in the experiment on BT-549 it was 23.1 µM (inactive); in the experiment with CAKI-1 it was 17.9 µM (inactive); in the experiment with HOP-62 it was 64.6 µM (inactive); in the experiment on HT-29, 31.3 µM (inactive); in the experiment on IGROV-1 it was 39.8 µM (inactive). Also, the GI50 with KM12 was 28.1 µM (inactive); in the experiment with M14, 33.7 µM (inactive); in the experiment on MDA-N it was 21.7 µM (inactive); with NCI-H23 it was 14.8 µM (inactive); in the experiment with OVCAR-5, 39.7 µM (inactive); with SF-268, 24.3 µM (inactive). Moreover, the GI50 is 21.5 µM (inactive) in the experiment on SF-295; 64.4 µM (inactive) with SK-MEL-28; 19.1 µM (inactive) in the experiment with SN12C; 23.3 µM (inactive) with SNB-75; 2.09 µM (inactive) in the experiment on SR; 27.8 µM (inactive) in the experiment with T47D. Also, the figures for the GI50 in the experiment with TK-10 and with UO-31 were 42.8 µM (inactive) and 16.7 µM (inactive), respectively.
For the compound `NS(=O)(=O)OCCCCCCCOS(N)(=O)=O`, the GI50 was 64.9 µM (inactive) in the experiment on ACHN; 151 µM (inactive) with BT-549; 84.3 µM (inactive) in the experiment on CAKI-1; 142 µM (inactive) in the experiment on HOP-62; 504 µM (inactive) in the experiment with HT-29; 376 µM (inactive) in the experiment with IGROV-1. In addition, the GI50 was 379 µM (inactive) in the experiment with KM12; 187 µM (inactive) in the experiment with M14; 392 µM (inactive) in the experiment on MDA-N; 245 µM (inactive) with NCI-H23; 408 µM (inactive) in the experiment on OVCAR-5; 130 µM (inactive) in the experiment on SF-268. Besides, the GI50 was > 92.9 µM (inactive) with SF-295; 535 µM (inactive) with SK-MEL-28; 133 µM (inactive) in the experiment on SN12C; 94.8 µM (inactive) with SNB-75; 31.6 µM (inactive) in the experiment on SR; 246 µM (inactive) in the experiment with T47D. In addition, the values for the GI50 with TK-10 and with UO-31 were 649 µM (inactive) and 265 µM (inactive), respectively.
